Reference: US12612409B2, “Pyrrolopyrimidines as CFTR potentiators” (Cystic Fibrosis Foundation, priority 2016, dated 2026)

Molecular target: T1, recombinant F508del V470 CFTR in Fischer rat thyroid (FRT) cells (Homo sapiens, UniProt P13569, DEL508-508)
T1 construct: expressed in transfected cells
Experiment: FRT ion flux assay of F508del CFTR potentiation
Type: cell-based
Details: FRT cells expressing F508del V470 CFTR, forskolin 20 uM, 27° C. pre-incubation
Description: FRT Ion Flux Assay of F508del CFTR Potentiation
Fischer rat thyroid (FRT) cell lines stably expressing recombinant F508del V470 CFTR and halide-sensitive yellow fluorescent protein (Pedemonte et al., J. Clin. Invest. 115(9) 2564-71 (2005)) were seeded at 25,000 cells/well in 50 uL/well of culture medium into black-walled, clear bottom tissue-culture-treated 384-well plates (Corning, cat. no. 3712). After one day, the cells were pre-incubated at 27° C./5% CO2 for 16-24 hours. The cells were then washed with dPBS and treated with forskolin (20 uM) and test compound for 30 mi by addition of 20 uL of compound dilution buffer (dPBS containing forskolin and test compound). Plates were loaded into FLIPR384 fluorescence imaging plate reader (Molecular Devices). After an initial fluorescence reading, iodide buffer (25 uL) (composition (in mM): 137 NaI, 1.5 K2PO4, 8.1 NaH2PO4, 2.7 KCl, 0.5 MgCl2, 1 CaCl2) was added and a second fluorescence reading was made after approximately 21 seconds. Data treatment involved division of the second fluorescence reading by the initial fluorescence reading, then scaling of the resulting normalized endpoint fluorescence with respect to the responses for DMSO (0%) and a positive control potentiator (100%).

T1 sequence (P13569 with tags, fused parts or gaps DEL508-508): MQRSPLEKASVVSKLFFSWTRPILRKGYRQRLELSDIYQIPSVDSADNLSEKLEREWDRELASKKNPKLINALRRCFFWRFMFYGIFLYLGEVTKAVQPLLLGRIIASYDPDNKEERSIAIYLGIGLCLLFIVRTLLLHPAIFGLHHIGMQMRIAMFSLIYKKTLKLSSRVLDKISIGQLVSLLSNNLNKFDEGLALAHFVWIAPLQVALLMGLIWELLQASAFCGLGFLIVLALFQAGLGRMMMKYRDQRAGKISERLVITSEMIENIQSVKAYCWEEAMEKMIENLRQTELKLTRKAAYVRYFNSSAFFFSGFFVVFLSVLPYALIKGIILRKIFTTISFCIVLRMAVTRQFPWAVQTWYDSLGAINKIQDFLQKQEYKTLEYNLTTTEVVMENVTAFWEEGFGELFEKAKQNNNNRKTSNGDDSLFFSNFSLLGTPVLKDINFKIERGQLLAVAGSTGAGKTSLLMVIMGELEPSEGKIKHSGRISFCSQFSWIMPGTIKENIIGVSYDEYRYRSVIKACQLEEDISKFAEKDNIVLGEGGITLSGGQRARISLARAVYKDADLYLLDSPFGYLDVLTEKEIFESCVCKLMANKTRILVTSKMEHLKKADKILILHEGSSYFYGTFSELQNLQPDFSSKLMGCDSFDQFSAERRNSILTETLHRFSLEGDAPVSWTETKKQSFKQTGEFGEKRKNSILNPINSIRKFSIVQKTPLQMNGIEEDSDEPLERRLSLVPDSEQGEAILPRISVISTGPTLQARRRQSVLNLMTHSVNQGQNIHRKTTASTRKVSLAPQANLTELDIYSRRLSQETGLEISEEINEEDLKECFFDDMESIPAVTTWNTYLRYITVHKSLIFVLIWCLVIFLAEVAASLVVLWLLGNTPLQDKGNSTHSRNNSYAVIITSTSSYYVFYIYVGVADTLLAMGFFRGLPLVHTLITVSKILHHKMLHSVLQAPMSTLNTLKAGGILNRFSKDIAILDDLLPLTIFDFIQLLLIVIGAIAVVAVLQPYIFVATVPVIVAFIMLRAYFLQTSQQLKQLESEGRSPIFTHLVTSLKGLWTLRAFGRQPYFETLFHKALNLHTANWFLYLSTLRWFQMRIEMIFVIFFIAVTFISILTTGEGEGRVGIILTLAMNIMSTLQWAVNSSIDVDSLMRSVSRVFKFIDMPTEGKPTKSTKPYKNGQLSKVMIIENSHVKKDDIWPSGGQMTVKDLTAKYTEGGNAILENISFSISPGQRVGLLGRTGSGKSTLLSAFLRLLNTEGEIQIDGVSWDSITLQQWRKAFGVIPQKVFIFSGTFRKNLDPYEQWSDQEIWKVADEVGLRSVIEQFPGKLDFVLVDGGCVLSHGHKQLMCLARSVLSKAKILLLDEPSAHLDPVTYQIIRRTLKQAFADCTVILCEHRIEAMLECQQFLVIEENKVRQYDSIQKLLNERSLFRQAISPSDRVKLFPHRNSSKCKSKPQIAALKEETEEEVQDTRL

EC50 | Structure (SMILES)
0.322 µM | CC(c1cc(-c2ccccc2F)no1)n1cc(-c2ccc3c(c2)OCCO3)c2c(N)ncnc21 (centres unmarked) [Example 102, 5-(2,3-Dihydro-1,4-benzodioxin-6-yl)-7-{1-[3-(2-fluorophenyl)-1,2-oxazol-5-yl]ethyl}-7H-pyrrolo[2,3-d]pyrimidin-4-amine]
1.56 µM | COc1cc(-c2cn(Cc3cn(-c4ccccc4F)nn3)c3ncnc(N)c23)ccc1C#N [Example 84, 4-(4-Amino-7-{[1-(2-fluorophenyl)-1H-1,2,3-triazol-4-yl]methyl}-7H-pyrrolo[2,3-d]pyrimidin-5-yl)-2-methoxybenzonitrile]
0.691 µM | COc1cc2c(cc1-c1cn(C(C)c3cn(-c4ccccc4F)nn3)c3ncnc(N)c13)CCCC2 (centres unmarked) [Example 93, 7-{1-[1-(2-Fluorophenyl)-1H-1,2,3-triazol-4-yl]ethyl}-5-(3-methoxy-5,6,7,8-tetrahydronaphthalen-2-yl)-7H-pyrrolo[2,3-d]pyrimidin-4-amine]
0.457 µM | CCC(c1nnn(-c2ccc(F)cc2F)c1C)n1cc(-c2cnc(C(F)(F)F)nc2)c2c(N)ncnc21 (single isomer, unassigned) [Example 190]
0.331 µM | CC(c1cc(-c2ccccc2F)no1)n1cc(-c2ccc3nonc3c2)c2c(N)ncnc21 (centres unmarked) [Example 104, 5-(2,1,3-Benzoxadiazol-5-yl)-7-{1-[3-(2-fluorophenyl)-1,2-oxazol-5-yl]ethyl}-7H-pyrrolo[2,3-d]pyrimidin-4-amine]
0.17 µM | Nc1ncnc2c1c(-c1ccc(Cl)cc1)cn2Cc1cn(C2CCCC2)nn1 [Example 281, 5-(4-Chlorophenyl)-7-[(1-cyclopentyl-1H-1,2,3-triazol-4-yl)methyl]-7H-pyrrolo[2,3-d]pyrimidin-4-amine]
3.88 µM | Nc1ncnc2c1c(-c1ccc(Cl)cc1)cn2Cc1cn(-c2ccccc2F)cn1 [Example 265, 5-(4-Chlorophenyl)-7-{[1-(2-fluorophenyl)-1H-imidazol-4-yl]methyl}-7H-pyrrolo[2,3-d]pyrimidin-4-amine]
4.54 µM | Cc1ccc2cc(F)c(-c3cn(C(C)c4cnc(-c5ccccc5F)[nH]4)c4ncnc(N)c34)cc2n1 (centres unmarked) [Example 63, 5-(6-Fluoro-2-methylquinolin-7-yl)-7-{1-[2-(2-fluorophenyl)-1H-imidazol-5-yl]ethyl}-7H-pyrrolo[2,3-d]pyrimidin-4-amine]
1.19 µM | CCC(c1cn(-c2ccccc2F)nn1)n1cc(-c2cnc(N(C)C)nc2)c2c(N)ncnc21 (single isomer, unassigned; enantiomer 2) [Example 146, 5-[2-(Dimethylamino)pyrimidin-5-yl]-7-{1-[1-(2-fluorophenyl)-1H-1,2,3-triazol-4-yl]propyl}-7H-pyrrolo[2,3-d]pyrimidin-4-amine, enantiomer 2]
0.277 µM | CC(c1cn(-c2ccccc2F)nn1)n1cc(-c2cnc3ccccc3c2)c2c(N)ncnc21 (centres unmarked) [Example 100, 7-{1-[1-(2-Fluorophenyl)-1H-1,2,3-triazol-4-yl]ethyl}-5-(quinolin-3-yl)-7H-pyrrolo[2,3-d]pyrimidin-4-amine]
2.2 µM | CC(c1cn(-c2ccccc2F)nn1)n1cc(C2COC2)c2c(N)ncnc21 (centres unmarked) [Example 250, 7-{1-[1-(2-Fluorophenyl)-1H-1,2,3-triazol-4-yl]ethyl}-5-(oxetan-3-yl)-7H-pyrrolo[2,3-d] pyrimidin-4-amine]
1.24 µM | CC(c1cn(-c2ccc(F)cc2F)nn1)n1cc(-c2cnc(C(F)(F)F)nc2)c2c(N)ncnc21 (single isomer, unassigned; enantiomer 2) [Example 124, 7-{1-[1-(2,4-Difluorophenyl)-1H-1,2,3-triazol-4-yl]ethyl}-5-[2-(trifluoromethyl)pyrimidin-5-yl]-7H-pyrrolo[2,3-d]pyrimidin-4-amine, enantiomer 2]
4.06 µM | CC(c1cc(-c2ccccc2F)no1)n1cc(-c2ccc3c(c2)C(=O)N(C)C3)c2c(N)ncnc21 (centres unmarked) [Example 101, 6-(4-Amino-7-{1-[3-(2-fluorophenyl)-1,2-oxazol-5-yl]ethyl}-7H-pyrrolo[2,3-d]pyrimidin-5-yl)-2-methyl-2,3-dihydro-1H-isoindol-1-one]
5.15 µM | CC(c1cc(-c2ccccc2F)no1)n1cc(-c2ccnc3[nH]ccc23)c2c(N)ncnc21 (centres unmarked) [Example 103, 7-{1-[3-(2-Fluorophenyl)-1,2-oxazol-5-yl]ethyl}-5-(1H-pyrrolo[2,3-b]pyridin-4-yl)-7H-pyrrolo[2,3-d]pyrimidin-4-amine]
2.08 µM | CC(c1cc(-c2ccccc2F)no1)n1cc(-c2cc3cnccc3s2)c2c(N)ncnc21 (centres unmarked) [Example 106, 7-{1-[3-(2-Fluorophenyl)-1,2-oxazol-5-yl]ethyl}-5-(thieno[3,2-c]pyridin-2-yl)-7H-pyrrolo[2,3-d]pyrimidin-4-amine]
0.111 µM | CC(=O)c1ccc(-c2cn(C(C)c3cn(-c4ccccc4F)nn3)c3ncnc(N)c23)s1 (centres unmarked) [Example 91, 1-[5-(4-Amino-7-{1-[1-(2-fluorophenyl)-1H-1,2,3-triazol-4-yl]ethyl}-7H-pyrrolo[2,3-d]pyrimidin-5-yl)thiophen-2-yl]ethanone]
1.38 µM | Cn1ncc2c(-c3cn(Cc4cn(-c5ccccc5F)nn4)c4ncnc(N)c34)cccc21 [Example 78, 7-{[1-(2-Fluorophenyl)-1H-1,2,3-triazol-4-yl]methyl}-5-(1-methyl-1H-indazol-4-yl)-7H-pyrrolo[2,3-d]pyrimidin-4-amine]
1.92 µM | Cc1c(C(C)n2cc(-c3cnc(C(F)(F)F)nc3)c3c(N)ncnc32)nnn1-c1ccccc1F (single isomer, unassigned; enantiomer 2) [Example 180, 7-{1-[1-(2-Fluorophenyl)-5-methyl-1H-1,2,3-triazol-4-yl]ethyl}-5-[2-(trifluoromethyl)pyrimidin-5-yl]-7H-pyrrolo[2,3-d]pyrimidin-4-amine, enantiomer 2]
0.129 µM | CC(c1cnc(-c2ccccc2F)[nH]1)n1cc(-c2cn[nH]c2)c2c(N)ncnc21 (centres unmarked) [Example 71, 7-{1-[2-(2-Fluorophenyl)-1H-imidazol-5-yl]ethyl}-5-(1H-pyrazol-4-yl)-7H-pyrrolo[2,3-d]pyrimidin-4-amine]
0.194 µM | Nc1ncnc2c1c(-c1ccc(Cl)cc1)c(Br)n2Cc1cn(-c2cccc(F)c2)nn1 [Example 319, 6-Bromo-5-(4-chlorophenyl)-7-{[1-(3-fluorophenyl)-1H-1,2,3-triazol-4-yl]methyl}-7H-pyrrolo[2,3-d]pyrimidin-4-amine]
0.32 µM | Cn1ncc2ccc(-c3cn(Cc4cn(-c5ccccc5F)nn4)c4ncnc(N)c34)cc21 [Example 73, 7-{[1-(2-Fluorophenyl)-1H-1,2,3-triazol-4-yl]methyl}-5-(1-methyl-1H-indazol-6-yl)-7H-pyrrolo[2,3-d]pyrimidin-4-amine]
0.732 µM | CCC(c1cn(-c2ccccc2F)nn1)n1cc(-c2cnc(C(F)F)nc2)c2c(N)ncnc21 (single isomer, unassigned; enantiomer 2) [Example 144, 5-[2-(Difluoromethyl)pyrimidin-5-yl]-7-{1-[1-(2-fluorophenyl)-1H-1,2,3-triazol-4-yl]propyl}-7H-pyrrolo[2,3-d]pyrimidin-4-amine, enantiomer 2]
1.05 µM | CC(c1cn(-c2ccccc2F)nn1)n1cc(-c2cc[nH]n2)c2c(N)ncnc21 (single isomer, unassigned; enantiomer 2) [Example 122, 7-{1-[1-(2-Fluorophenyl)-1H-1,2,3-triazol-4-yl]ethyl}-5-(1H-pyrazol-3-yl)-7H-pyrrolo[2,3-d]pyrimidin-4-amine, enantiomer 2]
